According to patent US5759789A, “Prostaglandin receptor EP2” (Merck Frosst Canada, Inc., priority 1996, dated 1998):
“Also recorded” adds a separate entry of the source. Where two headings read alike, the source gives them in different places.

Key:
[1] = molecular target: T1, EP2 receptor (Homo sapiens, UniProt P35408); assay: [3H]PGE2 binding (competition) assay, membranes of COS-M6 cells transfected with EP2; design: full-length human EP2 cDNA was isolated; This 1.958 kb cDNA clone encodes a 488-amino acid protein; expressed in transfected cells; host or cells: COS-M6 cells (pcDNAIamp plasmid, DEAE-dextran), 100,000 x g membrane fraction; conditions: for activity at EP2 in words / rank order of potency for prostaglandins and related analogs: competition with [3H]PGE2
T1 sequence (P35408 whole entry): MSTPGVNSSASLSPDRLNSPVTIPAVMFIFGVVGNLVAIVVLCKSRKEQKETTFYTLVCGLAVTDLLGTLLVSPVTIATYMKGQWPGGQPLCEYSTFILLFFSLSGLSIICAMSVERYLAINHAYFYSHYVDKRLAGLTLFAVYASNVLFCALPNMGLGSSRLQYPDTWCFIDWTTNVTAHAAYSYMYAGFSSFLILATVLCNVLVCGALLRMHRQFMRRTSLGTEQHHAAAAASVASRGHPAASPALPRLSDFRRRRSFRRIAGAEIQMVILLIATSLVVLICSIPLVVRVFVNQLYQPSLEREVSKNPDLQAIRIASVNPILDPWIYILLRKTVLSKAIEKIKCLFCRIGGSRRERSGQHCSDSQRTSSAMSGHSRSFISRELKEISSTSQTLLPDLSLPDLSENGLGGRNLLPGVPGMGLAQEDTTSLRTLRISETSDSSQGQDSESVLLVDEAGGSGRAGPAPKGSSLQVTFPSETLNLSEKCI
Experimental: The cells were maintained in culture for 72 h, then harvested and membranes prepared by differential centrifugation (1000×g for 10 min, then 100,000×g for 30 min) following lysis of the cells by nitrogen cavitation. […] Incubations were conducted for 45 min at 30° C. prior to separation of the bound and free radioligand by rapid filtration through Whatman GF/B filters presoaked at 4° C. in washing buffer ([…] MES/KOH (pH 6.0) containing 0.01% bovine serum albumin).

[2] = test system: control oocytes (CFTR alone or CFTR plus antisense EP2 cDNA injected); assay: CFTR-mediated Cl- current in control oocytes (CFTR alone or CFTR plus antisense EP2 cDNA injected); type: cell-based, Xenopus laevis
[3] = molecular target: T1, EP2 receptor; assay: PGE2-induced CFTR-mediated Cl- current in Xenopus oocytes injected with EP2 plus CFTR cDNA; type: cell-based
Experimental: Oocytes were taken from adult females of Xenopus laevis using standard surgical procedure (Colman, A., 1984 In: Transcription and Translation--A Practical Approach, IRL Press). To remove follicle cells, oocytes were treated for 2-3 h with freshly made collagenase (2 mg/ml, type 2, Worthington Biochemical Corp., Freehold, N.J.) in Ca^2+ -free ND96 solution (ND96 in mM: NaCl 96, KCl 2, MgCl2 1, HEPES 5, Na-pyruvate 2.5, theophylline 0.5 gentamicin […], +1.8 CaCl2, pH 7.6). Defolliculated stage 5-6 oocytes were selected and maintained in ND96 solution. Oocyte nuclei were injected with 1.6 ng of pcDNAIamp-EP2 plus 2.5 ng of pcDNAIamp-CFTR and then incubated at 18° C. for 48 h before challenge with agonist. CFTR (cystic fibrosis transmembrane regulator, a cAMP dependent Cl^- channel) was co-expressed with EP2 receptor in these oocytes and served as a reporter of changes in intracellular cAMP levels. Functional activity was determined by measurement of PGE2-induced CFTR-mediated Cl^- current. An oocyte was placed in a 0.5 ml perfusion chamber and voltage clamped at -60 mV (with microelectrodes of 0.5-2.0 MW resistance filled with 3M KCl) using a Turbo TEC01C amplifier (NP1 Instruments, Germany). Ligand-containing solution was perfused and the current response was recorded.

[4] = test system: EP1 receptor; conditions: cited from earlier work
[5] = test system: EP2 receptor; conditions: cited from earlier work
[6] = test system: EP3 receptor; conditions: cited from earlier work
[7] = test system: EP2 receptor; conditions: cited from earlier work; remark: listed apart in the source
[8] = test system: TP receptor; conditions: cited from earlier work
[9] = test system: IP receptor; conditions: cited from earlier work
[10] = CFTR alone or CFTR plus antisense EP2 cDNA injected

CCCCC(C)(O)C/C=C/[C@H]1[C@H](O)CC(=O)[C@@H]1CCCCCCC(=O)OC (mixture of isomers) [Misoprostol]
IC50 ([1]; read-out: IC50): 6.03 µM

CC(C)Oc1ccc2c(=O)c3cc(C(=O)O)ccc3oc2c1 [AH6809]
activity at EP2 in words [1]: essentially inactive

CC(C)Cn1c(=O)n(C)c(=O)c2[nH]cnc21 [IBMX]
CFTR-mediated Cl- current ([2]; CFTR + anti-sense hEP2 cDNA injected oocytes): IBMX-induced, CFTR-mediated Cl^- current

O=C(O)CCCCCC[C@H]1C(=O)CC[C@@H]1/C=C/[C@@H](O)COc1ccccc1 [MB28767]
potency at EP2 relative to EP3 (fold less potent at EP2 than EP3) ([1]; EP2 versus EP3): approximately 30 fold

CCCCC[C@H](O)/C=C/[C@H]1C(=O)C[C@H](O)[C@@H]1C/C=C\CCCC(=O)O [PGD2]
rank order of potency for prostaglandins and related analogs [1]: PGE2=PGE1>>phenyl-trinor PGE2>iloprost>PGF2α >PGD2≈U46619

CCCCC[C@H](O)/C=C/[C@H]1[C@H](O)CC(=O)[C@@H]1CCCCCCC(=O)O [PGE1]
rank order of potency for prostaglandins and related analogs [1]: PGE2=PGE1>>phenyl-trinor PGE2>iloprost>PGF2α >PGD2≈U46619 | IC50 ([1]; read-out: IC50 values in competition assays): 0.001 µM

CCCCC[C@H](O)/C=C/[C@H]1[C@H](O)CC(=O)[C@@H]1C/C=C\CCCC(=O)O [PGE2, prostaglandin E2]
current response ([3]; perfusion of 1 nM, voltage clamp -60 mV, 1.6 ng EP2 plus 2.5 ng CFTR cDNA): inward cAMP-dependent Cl^- current; also recorded: prominent current responses | response of control oocytes ([2]; 1 μM, CFTR + anti-sense hEP2 cDNA): lack of response | response of control oocytes ([2]; 3 μM, CFTR + anti-sense hEP2 cDNA): lack of response | response of control oocytes [2, 10]: absent | affinity [4]: high affinity | affinity [5]: high affinity | affinity [6]: high affinity | intracellular cAMP levels [7]: increase in intracellular cAMP levels | rank order of potency for prostaglandins and related analogs [1]: PGE2=PGE1>>phenyl-trinor PGE2>iloprost>PGF2α >PGD2≈U46619

CCCCC[C@H](O)/C=C/[C@@H]1[C@@H](C/C=C\CCCC(=O)O)[C@@H](O)C[C@H]1O [PGF2α]
current response compared with PGE2 ([3]; 1 μM PGF2α): much smaller | response of control oocytes [2, 10]: absent | rank order of potency for prostaglandins and related analogs [1]: PGE2=PGE1>>phenyl-trinor PGE2>iloprost>PGF2α >PGD2≈U46619

CC(=O)NNC(=O)N1Cc2ccccc2Oc2ccc(Cl)cc21 [SC19220]
activity at EP2 in words [1]: essentially inactive

CCCCC[C@H](O)/C=C/[C@@H]1[C@@H](C/C=C\CCCC(=O)O)[C@H]2CO[C@@H]1C2 [U46619]
potency at the TP receptor, stable thromboxane analog [8]: comparable potency | rank order of potency for prostaglandins and related analogs [1]: PGE2=PGE1>>phenyl-trinor PGE2>iloprost>PGF2α >PGD2≈U46619

CCCC1([C@H](O)C/C=C/[C@H]2[C@H](O)CC(=O)[C@@H]2CCCCCCC(=O)OC)CCC1 [butaprost]
activity at EP2 in words [1]: relatively inactive | IC50 ([1]; read-out: IC50): 30 µM

CC#CCC(C)[C@H](O)/C=C/[C@@H]1[C@H]2C/C(=C/CCCC(=O)O)C[C@H]2C[C@H]1O (stereo partly drawn) [iloprost]
potency at the IP receptor, stable prostacyclin analog [9]: comparable potency | rank order of potency for prostaglandins and related analogs [1]: PGE2=PGE1>>phenyl-trinor PGE2>iloprost>PGF2α >PGD2≈U46619

O=C(O)CCCC=CCC1C(=O)CC(O)C1C=CC(O)CCc1ccccc1 (stereo not drawn) [phenyl-trinor PGE2, 17-pheyyl-trinor PGE2]
rank order of potency for prostaglandins and related analogs [1]: PGE2=PGE1>>phenyl-trinor PGE2>iloprost>PGF2α >PGD2≈U46619
